Data published in patent US20230416221A1, “DIHYDROISOQUINOLINONE AND ISOINDOLINONE DERIVATIVES AND USES THEREOF” (HEFEI INSTITUTES OF PHYSICAL SCIENCE, CHINESE ACADEMY OF …, priority 2020, published 2023).
Like-named read-outs stand apart in the source and are kept apart here.

What was measured:
[1] = tested on: acute myeloid leukemia cell line MOLM13; assay: Growth of cancer cells, Cell Titer-Glo GI50, MOLM13; assay type: cell-based; details: Homo sapiens
CDK9/CyclinT1 protein = CDK9/CyclinT1 protein (Homo sapiens (Human), UniProt P50750); assay: Enzyme activity assay of CDK9 protein inhibition in vitro, CDK9/CyclinT1
Sequence of CDK9/CyclinT1 protein (P50750 whole entry): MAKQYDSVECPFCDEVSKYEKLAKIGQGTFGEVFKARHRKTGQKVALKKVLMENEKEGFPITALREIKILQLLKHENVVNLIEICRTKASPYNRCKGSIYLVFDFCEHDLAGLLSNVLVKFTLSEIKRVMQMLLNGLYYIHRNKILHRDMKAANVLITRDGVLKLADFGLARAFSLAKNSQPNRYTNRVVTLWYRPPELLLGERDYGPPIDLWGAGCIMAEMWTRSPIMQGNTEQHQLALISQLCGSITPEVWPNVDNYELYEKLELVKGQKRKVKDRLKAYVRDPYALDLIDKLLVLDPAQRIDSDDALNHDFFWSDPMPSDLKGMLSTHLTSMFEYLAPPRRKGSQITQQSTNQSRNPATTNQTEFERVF
Sequence of CDK9/CyclinT1 protein (O60563 whole entry partner): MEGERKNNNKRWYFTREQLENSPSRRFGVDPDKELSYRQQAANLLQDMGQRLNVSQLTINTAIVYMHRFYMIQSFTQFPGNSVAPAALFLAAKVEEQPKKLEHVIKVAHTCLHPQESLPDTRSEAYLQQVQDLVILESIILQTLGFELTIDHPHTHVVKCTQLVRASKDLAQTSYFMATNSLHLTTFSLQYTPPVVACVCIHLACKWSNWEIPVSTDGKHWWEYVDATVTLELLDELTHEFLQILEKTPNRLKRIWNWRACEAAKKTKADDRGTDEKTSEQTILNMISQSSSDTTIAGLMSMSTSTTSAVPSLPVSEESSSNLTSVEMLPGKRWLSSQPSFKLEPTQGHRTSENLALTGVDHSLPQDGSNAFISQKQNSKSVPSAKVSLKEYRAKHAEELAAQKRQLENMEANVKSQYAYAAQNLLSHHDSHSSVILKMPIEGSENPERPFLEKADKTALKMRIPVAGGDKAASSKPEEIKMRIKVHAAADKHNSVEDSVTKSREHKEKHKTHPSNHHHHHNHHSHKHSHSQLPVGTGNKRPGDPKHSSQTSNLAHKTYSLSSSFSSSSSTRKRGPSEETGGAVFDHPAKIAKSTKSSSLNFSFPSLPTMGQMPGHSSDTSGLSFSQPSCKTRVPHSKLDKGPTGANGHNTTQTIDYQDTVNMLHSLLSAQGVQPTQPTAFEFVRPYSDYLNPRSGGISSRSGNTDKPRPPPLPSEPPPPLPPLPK

[2] = tested on: acute myeloid leukemia cell line MOLM14; assay: Growth of cancer cells, Cell Titer-Glo GI50, MOLM14; assay type: cell-based; details: Homo sapiens, read-out: GI50 MOLM 14
[3] = tested on: human chronic myeloid leukemia cell K562; assay: Growth of cancer cells, Cell Titer-Glo GI50, K562; assay type: cell-based; details: Homo sapiens, read-out: GI50 K562
[4] = tested on: acute myeloid leukemia cell line MV4-11; assay: Growth of cancer cells, Cell Titer-Glo GI50, MV4-11; details: Homo sapiens, MV4-11, 72 h, read-out: GI50 MV4-11
[5] = tested on: MOLM13 drug resistant strain MOLM13 BR1; assay: Growth of drug resistant strain MOLM13 BR1, Cell Titer-Glo GI50; assay type: cell-based; details: Homo sapiens, MOLM-13, BAY1251152-resistant MOLM13 strain, 72 hours
[6] = MOLM-13, incubated for 72 hours, Cell Titer-Glo, Table 1, read-out: GI50 MOLM 13
[7] = MOLM-14, incubated for 72 hours, Cell Titer-Glo
[8] = K562, incubated for 72 hours, Cell Titer-Glo

In the case of `COCCN[C@H]1CC[C@H](Nc2ncc(Cl)c(-c3ccc4c(c3)C(C)(C)NC4=O)n2)CC1` [Compound 22, 5-(5-chloro-2-(((1r,4r)-4-((2-methoxyethyl)amino)cyclohexyl)amino)pyrimidin-4-yl)-3,3-dimethylisoindoline-1-one], the GI50 [1, 6] is reported as 28 nM, the IC50 (CDK9/CyclinT1 protein) is reported as 13 nM and the GI50 [2, 7] is reported as 41 nM.
With `CC1(C)CNC(=O)c2ccc(-c3ccnc(Nc4ccc(F)c(CS(C)(=O)=O)c4)n3)cc21` [Compound 36, 6-(2-((4-fluoro-3-((methylsulfonyl)methyl)phenyl)amino)pyrimidin-4-yl)-4,4-dimethyl-3,4-dihydroisoquinolin-1(2H)-one] the GI50 ([1]; MOLM-13, 72 h, read-out: GI50 MOLM 13) was < 1 nM, the GI50 ([3]; K562, 72 h) was 9 nM and the GI50 ([2]; MOLM-14, 72 h) was 2 nM. It also gave a GI50 [4] of 3 nM.
`CC1(C)CNC(=O)c2ccc(-c3ccnc(Nc4cccc(S(C)(=N)=O)c4)n3)cc21` (stereo not drawn) [Compound 38] was tested, and the GI50 [1, 6] was 5 nM, the GI50 [3, 8] was 95 nM and the GI50 [2, 7] was 16 nM. It also gave a GI50 [4] of 13 nM.
`COc1ccc(Nc2nccc(-c3ccc4c(c3)C(C)(C)CNC4=O)n2)cc1CS(C)(=O)=O` [Compound 45, 6-(2-((4-methoxy-3-((methylsulfonyl)methyl)phenyl)amino)pyrimidin-4-yl)-4,4-dimethyl-3,4-dihydroisoquinolin-1(2H)-one] was tested, and the GI50 [1, 6] was 30 nM and the GI50 [2, 7] was 96 nM.
For `CC1(C)NC(=O)c2ccc(-c3nc(Nc4ccc(F)c(CS(C)(=O)=O)c4)ncc3Cl)cc21` [Compound 51, 5-(5-chloro-2-((4-fluoro-3-((methylsulfonyl)methyl)phenyl)amino)pyrimidin-4-yl)-3,3-dimethylisoindoline-1-one], the GI50 [2, 7] was 15 nM.
In the case of `CC1(C)CNC(=O)c2ccc(-c3nc(Nc4ccc(F)c(C5(S(C)(=O)=O)CC5)c4)ncc3F)cc21` [Compound 63, 6-(5-fluoro-2-((4-fluoro-3-(1-(methylsulfonyl)cyclopropyl)phenyl)amino)pyrimidin-4-yl)-4,4-dimethyl-3,4-dihydroisoquinolin-1(2H)-one], the GI50 [1, 6] is reported as 19 nM and the GI50 [2, 7] is reported as 44 nM.
For `CN1CCN(c2cc(Nc3ncc(F)c(-c4ccc5c(c4)C(C)(C)CNC5=O)n3)ccc2F)CC1` [Compound 72, 6-(5-fluoro-2-((4-fluoro-3-(4-methylpiperazin-1-yl)phenyl)amino)pyrimidin-4-yl)-4,4-dimethyl-3,4-dihydroisoquinolin-1(2H)-one], the GI50 [1, 6] was < 1 nM, the IC50 (CDK9/CyclinT1 protein) was 15 nM and the GI50 [2, 7] was 5.5 nM.
`CN1CCN(c2cc(F)cc(Nc3ncc(F)c(-c4ccc5c(c4)C(C)(C)CNC5=O)n3)c2)CC1` [Compound 73, 6-(5-fluoro-2-((3-fluoro-5-(4-methylpiperazin-1-yl)phenyl)amino)pyrimidin-4-yl)-4,4-dimethyl-3,4-dihydroisoquinolin-1(2H)-one] was tested, and the GI50 [1, 6] was < 1 nM, the GI50 ([1]; MOLM-13, incubated for 72 hours, Cell Titer-Glo, Table 2, read-out: GI50 MOLM13) was 1.64 nM and the GI50 [5] was 0.345 nM. The GI50 [3, 8] was 26 nM and the GI50 [2, 7] was < 1 nM.
`CN1CCN(c2cc(Nc3ncc(Cl)c(-c4ccc5c(c4)C(C)(C)CNC5=O)n3)ccc2F)CC1` [Compound 75, 6-(5-chloro-2-((4-fluoro-3-(4-methylpiperazin-1-yl)phenyl)amino)pyrimidin-4-yl)-4,4-dimethyl-3,4-dihydroisoquinolin-1(2H)-one] gave a GI50 [1, 6] of 33 nM and a GI50 [2, 7] of 110 nM.
Compound `CC1(C)CNC(=O)c2ccc(-c3ccnc(N[C@@H]4CCCN(S(C)(=O)=O)C4)n3)cc21` [Compound 104] has an IC50 (CDK9/CyclinT1 protein) of 0.9 nM, a GI50 [2, 7] of 10 nM and a GI50 [4] of 34 nM.
For `CC1(C)CNC(=O)c2ccc(-c3ccnc(NC4CCN(S(C)(=O)=O)CC4)n3)cc21` [Compound 105, 4,4-dimethyl-6-(2-((1-(methylsulfonyl)piperidin-4-yl)amino)pyrimidin-4-yl)-3,4-dihydroisoquinolin-1(2H)-one], the IC50 (CDK9/CyclinT1 protein) was 15 nM, the GI50 [2, 7] was 43 nM and the GI50 [4] was 82 nM.
`CC1(C)CNC(=O)c2ccc(-c3ccnc(N[C@H]4CC[C@H](CC(=O)O)CC4)n3)cc21` [Compound 106] gave an IC50 (CDK9/CyclinT1 protein) of 10.4 nM.
